# Read-outs that look alike come from different tables or passages of the source.
# How the values were obtained:
# Assay type in all cases: cell-based
# [1] = test system: Human esophageal cancer cells OE33; assay: Tumor cell growth inhibitory activity (CCK-8), OE33
# Method: (§1) Human esophageal cancer cells OE33 (human breast adenocarcinoma cells SK-BR-3, or human gastric cancer cells NCI-N87) was cultured in RPMI1640 (Cellmax) supplemented with 10% fetal bovine serum (Cellmax). Cells in the exponential growth phase were diluted to a concentration of 1×10^5 cells/mL by culture medium and added to 96-well cell culture plates at 100 μL per well, then returned back and incubated overnight in a 37° C. incubator with 5% CO2. On the following day, the compounds were diluted to concentrations of 10000 nM, 2000 nM, 400 nM, 80 nM, 16 nM, 3.2 nM, 0.64 nM, and 0.13 nM by culture medium and the diluted compounds were added to the 96-well cell culture plates at 2 μL per well, with three replicate wells for each concentration. Negative control and blank control groups without addition of compounds were added with 2 μL of the dilution liquid per well. After the addition of the compounds, the plates were returned back to the 37° C. incubator with 5% CO2 to continue the incubation for 72 h. After the incubation, the cell culture plates were removed, and the culture medium was aspirated using a pipette. Then, 100 μL of culture medium containing 10% CCK-8 was added to each well, and the plates were incubated at 37° C. for 3 h. After the incubation, the plates were removed, kept in the dark, and placed in an ELISA plate. Absorbance was measured at 630 nm as the reference wavelength and 450 nm as the test wavelength. The IC50 values (Table 2) were calculated using the four-parameter logistic regression method in GraphPad.
# [2] = test system: human breast adenocarcinoma cells SK-BR-3; assay: Tumor cell growth inhibitory activity (CCK-8), SK-BR-3
# Method: as §1
# [3] = test system: human gastric cancer cells NCI-N87; assay: Tumor cell growth inhibitory activity (CCK-8), NCI-N87
# Method: as §1
# NCI-H1975 = assay: Tumor cell growth inhibitory activity, NCI-H1975
# MDA-MB-231 = assay: Tumor cell growth inhibitory activity, MDA-MB-231; conditions: MDA-MB-231 cells, read-out: IC50 (nM) for inhibiting the growth of tumor cells, MDA-MB-231
# [4] = Homo sapiens, OE33 cells, 72 h incubation, CCK-8, read-out: IC50 (nM) for inhibiting the growth of tumor cells, OE33
# [5] = Homo sapiens, SK-BR-3 cells, 72 h incubation, CCK-8, read-out: IC50 (nM) for inhibiting the growth of tumor cells, SK-BR-3
# [6] = Homo sapiens, NCI-N87 cells, 72 h incubation, CCK-8, read-out: IC50 (nM) for inhibiting the growth of tumor cells, NCI-N87
# [7] = Homo sapiens, NCI-H1975 cells, read-out: IC50 (nM) for inhibiting the growth of tumor cells, NCI-H1975
# [8] = Homo sapiens, OE33, 72 h, read-out: IC50 (nM) for inhibiting the growth of tumor cells, OE33, OE33 cells, 72 h incubation, CCK-8
# [9] = Homo sapiens, SK-BR-3, 72 h, read-out: IC50 (nM) for inhibiting the growth of tumor cells, SK-BR-3, SK-BR-3 cells, 72 h incubation, CCK-8
# [10] = Homo sapiens, NCI-N87, 72 h, read-out: IC50 (nM) for inhibiting the growth of tumor cells, NCI-N87, NCI-N87 cells, 72 h incubation, CCK-8
# [11] = Homo sapiens, NCI-H1975, read-out: IC50 (nM) for inhibiting the growth of tumor cells, NCI-H1975, NCI-H1975 cells
Structure (SMILES),"IC50 [1, 4] [nM]","IC50 [2, 5] [nM]","IC50 [3, 6] [nM]",IC50 (NCI-H1975; [7]) [nM],IC50 (MDA-MB-231; Homo sapiens) [nM],other results
"CC[C@@]1(O)C(=O)OCc2c1cc1n(c2=O)Cc2c-1nc1cc(F)c(C)cc1c2CCNC(C)=O [Compound 1, 7-(2-Acetylamino)ethyl-10-methyl-11-fluorocamptothecin]",21.3,19.5,3.78,361,350,–
"CC[C@@]1(O)C(=O)OCc2c1cc1n(c2=O)Cc2c-1nc1cc(F)c(C)cc1c2CCNC(=O)C(F)F [Compound 2, 7-(2-Difluoroacetylamino)ethyl-10-methyl-11-fluorocamptothecin]",9.02,16.6,1.9,101,–,–
"CC[C@@]1(O)C(=O)OCc2c1cc1n(c2=O)Cc2c-1nc1cc(F)c(C)cc1c2CCNC1CCOCC1 [Compound 4, 7-(2-(Tetrahydropyran-4-yl)amino)ethyl-10-methyl-11-fluorocamptothecin]",4.39,6.12,2.48,247,321,–
"CC[C@@]1(O)C(=O)OCc2c1cc1n(c2=O)Cc2c-1nc1cc(F)c(C)cc1c2CCN1CCNCC1 [Compound 5, 7-(2-(piperazin-4-yl))ethyl-10-methyl-11-fluorocamptothecin]",44,60.4,5.66,77.3,–,–
"CC[C@@]1(O)C(=O)OCc2c1cc1n(c2=O)Cc2c-1nc1cc(F)c(C)cc1c2CCNC1CCC(O)CC1 (stereo partly drawn) [Compound 6, 7-(2-(4-Hydroxycyclohexyl)amino)ethyl-10-methyl-11-fluorocamptothecin]",24.4,28.7,3.85,298,–,–
"CC[C@@]1(O)C(=O)OCc2c1cc1n(c2=O)Cc2c-1nc1cc(F)c(C)cc1c2CCNC1CCC(OC)CC1 (stereo partly drawn) [Compound 7, 7-(2-(4-Methoxycyclohexyl)amino)ethyl-10-methyl-11-fluorocamptothecin]",6.46,22.2,2.02,92.2,147,–
"CC[C@@]1(O)C(=O)OCc2c1cc1n(c2=O)Cc2c-1nc1cc(F)c(C)cc1c2CCNCCN=[N+]=[N-] [Compound 8, 7-(2-(2-Azidoethyl)amino)ethyl-10-methyl-11-fluorocamptothecin]",3.26,4.92,0.68,18.5,80.4,–
"CC[C@@]1(O)C(=O)OCc2c1cc1n(c2=O)Cc2c-1nc1cc(F)c(C)cc1c2CCN[C@@H](C)CCO [Compound 9, 7-(2-((S)-4-Hydroxybutan-2-yl)amino)ethyl-10-methyl-11-fluorocamptothecin]",6.59,14.1,1.6,121,173,–
"CC[C@@]1(O)C(=O)OCc2c1cc1n(c2=O)Cc2c-1nc1cc(F)c(F)cc1c2CCNCCO [Compound 10, 7-(2-Hydroxyethylamino)ethyl-10,11-difluorocamptothecin]",58.3,76.5,8.17,–,–,–
"CC[C@@]1(O)C(=O)OCc2c1cc1n(c2=O)Cc2c-1nc1cc(F)c(F)cc1c2CCN[C@@H](C)COC [Compound 11, 7-(2-((S)-2-Methoxyisopropyl)amino)ethyl-10,11-difluorocamptothecin]",7.26,19.2,1.67,12.6,157,–
"CC[C@@]1(O)C(=O)OCc2c1cc1n(c2=O)Cc2c-1nc1cc(F)c(F)cc1c2CCNC1CCC(O)CC1 (stereo partly drawn) [Compound 12, 7-(2-(4-Hydroxycyclohexyl)amino)ethyl-10,11-difluorocamptothecin]",43,41.7,5.47,85.6,–,–
"CC[C@@]1(O)C(=O)OCc2c1cc1n(c2=O)Cc2c-1nc1cc(F)c(F)cc1c2CCNC1CCOCC1 [Compound 13, 7-(2-(Tetrahydropyran-4-yl)amino)ethyl-10,11-difluorocamptothecin]",1.96,5.63,0.93,9.83,72.7,–
"CC[C@@]1(O)C(=O)OCc2c1cc1n(c2=O)Cc2c-1nc1cc(F)c(F)cc1c2CCNC1CCC(OC)CC1 (stereo partly drawn) [Compound 14, 7-(2-(4-Methoxycyclohexyl)amino)ethyl-10,11-difluorocamptothecin]",26.1,36.1,5.3,383,460,–
"CC[C@@]1(O)C(=O)OCc2c1cc1n(c2=O)Cc2c-1nc1cc(F)c(F)cc1c2CCNCCN=[N+]=[N-] [Compound 15, 7-(2-(2-Azidoethyl)amino)ethyl-10,11-difluorocamptothecin]",32.3,7.5,1.02,115,–,–
"CC[C@@]1(O)C(=O)OCc2c1cc1n(c2=O)Cc2c-1nc1cc3c(cc1c2CCNCCN=[N+]=[N-])OCO3 [Compound 16, 7-(2-(2-Azidoethyl)amino)ethyl-10,11-methylenedioxycamptothecin]",–,–,–,–,–,"IC50 ([1]; read-out: IC50 (nM) for inhibiting the growth of tumor cells, OE33, OE33 cells, 72 h incubation, CCK-8): 3.13 nM; IC50 ([2]; read-out: IC50 (nM) for inhibiting the growth of tumor cells, SK-BR-3, SK-BR-3 cells, 72 h incubation, CCK-8): 8.96 nM; IC50 ([3]; read-out: IC50 (nM) for inhibiting the growth of tumor cells, NCI-N87, NCI-N87 cells, 72 h incubation, CCK-8): 1.01 nM; IC50 (NCI-H1975; read-out: IC50 (nM) for inhibiting the growth of tumor cells, NCI-H1975, NCI-H1975 cells): 9.22 nM; IC50 (MDA-MB-231): 116 nM"
"CC[C@@]1(O)C(=O)OCc2c1cc1n(c2=O)Cc2c-1nc1cc3c(cc1c2CCNC1CCC(O)CC1)OCO3 (stereo partly drawn) [Compound 26, 7-(2-(4-Hydroxycyclohexyl)amino)ethyl-10,11-methylenedioxycamptothecin]",–,–,–,–,–,"IC50 [1, 8]: 129 nM; IC50 [2, 9]: 218 nM; IC50 [3, 10]: 150 nM"
"CC[C@@]1(O)C(=O)OCc2c1cc1n(c2=O)Cc2c-1nc1cc3c(cc1c2CCN[C@@H](C)CO)OCO3 [Compound 28, 7-(2-((S)-Hydroxyisopropyl)amino)ethyl-10,11-methylenedioxycamptothecin]",–,–,–,–,–,"IC50 [1, 8]: 49.6 nM; IC50 [2, 9]: 77.2 nM; IC50 [3, 10]: 61.5 nM; IC50 (NCI-H1975; [11]): 119 nM"
"CC[C@@]1(O)C(=O)OCc2c1cc1n(c2=O)Cc2c-1nc1cc3c(cc1c2CCN(CCOC)C(=O)CO)OCO3 [Compound 32, 7-(2-(N-Hydroxyacetyl(2-methoxyethyl))amino)ethyl-10,11-methylenedioxycamptothecin]",11.6,6.48,2.09,–,–,–
"CC[C@@]1(O)C(=O)OCc2c1cc1n(c2=O)Cc2c-1nc1cc3c(cc1c2CCN(CC(F)F)C(=O)CO)OCO3 [Compound 33, 7-(2-(N-Hydroxyacetyl(2-difluoroethyl))amino)ethyl-10,11-methylenedioxycamptothecin]",–,–,–,–,–,"IC50 [1, 8]: 11.9 nM; IC50 [2, 9]: 8.93 nM; IC50 [3, 10]: 2.63 nM"
"CC[C@@]1(O)C(=O)OCc2c1cc1n(c2=O)Cc2c-1nc1cc3c(cc1c2CCNC(=O)CN=[N+]=[N-])OCO3 [Compound 37, 7-(2-Azidoacetylamino)ethyl-10,11-methylenedioxycamptothecin]",–,–,–,–,–,"IC50 [1, 8]: 25.2 nM; IC50 [2, 9]: 41.3 nM; IC50 [3, 10]: 5.57 nM; IC50 (NCI-H1975; [11]): 229 nM"
"CC[C@@]1(O)C(=O)OCc2c1cc1n(c2=O)Cc2c-1nc1cc3c(cc1c2CCNS(C)(=O)=O)OCO3 [Compound 38, 7-(2-Methanesulfonamido)ethyl-10,11-methylenedioxycamptothecin]",–,–,–,–,–,"IC50 [1, 8]: 199 nM; IC50 [2, 9]: 332 nM; IC50 [3, 10]: 48 nM; IC50 (NCI-H1975; [11]): 282 nM"
"CC[C@@]1(O)C(=O)OCc2c1cc1n(c2=O)Cc2c-1nc1cc3c(cc1c2CCNc1ncn[nH]1)OCO3 [Compound 41, 7-(2-(1,2,4-Triazol-5-ylamino))ethyl-10,11-methylenedioxycamptothecin]",–,–,–,–,–,"IC50 [1, 8]: 24.2 nM; IC50 [2, 9]: 89.9 nM; IC50 [3, 10]: 33.9 nM; IC50 (NCI-H1975; [11]): 136 nM"
